Read-outs that look alike come from different tables or passages of the source.
Biological target: CFTR (Homo sapiens, UniProt P13569)
Assay: Membrane potential dye, Enteroid Assay B
Assay type: cell-based
Details: for Ent. B Max Activity: chloride transport as % of triple combination control (Enteroid Assay B); for EC50: read-out: Ent. B EC50
Description: Base medium (ADF+++) consisted of Advanced DMEM/Ham's F12, 2 mM Glutamax, 10 mM HEPES, […] penicillin/streptomycin.
Intestinal enteroid maintenance medium (IEMM) consisted of ADF+++, 1× B27 supplement, 1× N2 supplement, 1.25 mM N-acetyl cysteine, 10 mM Nicotinamide, 50 ng/mL hEGF, 10 nM Gastrin, 1 μg/mL hR-spondin-1, 100 ng/mL hNoggin, TGF-b type 1 inhibitor A-83-01, 100 μg/mL Primocin, 10 μM P38 MAPK inhibitor SB202190.
Bath 1 Buffer consisted of 1 mM MgCl2, 160 mM NaCl, 4.5 mM KCl, 10 mM HEPES, 10 mM Glucose, 2 mM CaCl2).
Chloride Free Buffer consisted of 1 mM Magnesium Gluconate, 2 mM Calcium Gluconate, 4.5 mM Potassium Gluconate, 160 mM Sodium Gluconate, 10 mM HEPES, 10 mM Glucose.
BathI Dye Solution consisted of Bath 1 Buffer, 0.04% Pluronic F127, 20 μM Methyl Oxonol, 30 μM CaCCinh-A01, 30 μM Chicago Sky Blue.
Chloride Free Dye Solution consisted of Chloride Free Buffer, 0.04% Pluronic F127, 20 μM Methyl Oxonol, 30 μM CaCCinh-A01, 30 μM Chicago Sky Blue.
Chloride Free Dye Stimulation Solution consisted of Chloride Free Dye Solution, 10 μM forskolin, 100 μM IBMX, and 300 nM Compound III.
Human intestinal epithelial enteroid cells were obtained from the Hubrecht Institute for Developmental Biology and Stem Cell Research, Utrecht, The Netherlands and expanded in T-Flasks as previously described (Dekkers J F, Wiegerinck C L, de Jonge H R, Bronsveld I, Janssens H M, de Winter-de Groot K M, Brandsma A M, de Jong N W M, Bijvelds M J C, Scholte B J, Nieuwenhuis E E S, van den Brink S, Clevers H, van der Ent C K, Middendorp S and M Beekman J M. A functional CFTR assay using primary cystic fibrosis intestinal organoids. Nat Med. 2013 July;19(7):939-45.).
3. Enteroid Cell Harvesting and Seeding
Cells were recovered in cell recovery solution, collected by centrifugation at 650 rpm for 5 min at 4° C., resuspended in TrypLE and incubated for 5 min at 37° C. Cells were then collected by centrifugation at 650 rpm for 5 min at 4° C. and resuspended in IEMM containing 10 μM ROCK inhibitor (RI). The cell suspension was passed through a 40 μm cell strainer and resuspended at 1×10^6 cells/mL in IEMM containing 10 μM RI. Cells were seeded at 5000 cells/well into multi-well plates and incubated for overnight at 37° C., 95% humidity and 5% CO2 prior to assay.
5. Membrane Potential Dye, Enteroid Assay B
Enteroid cells were incubated with test compound in IEMM for 18-24 hours at 37° C., 95% humidity and 5% CO2. […] Briefly, cells were washed 5 times in Bath 1 Buffer. Bath 1 Dye Solution was added and the cells were incubated for 25 min at room temperature. Following dye incubation, cells were washed 3 times in Chloride Free Dye Solution. Chloride transport was initiated by addition of Chloride Free Dye Stimulation Solution and the fluorescence signal was read for 15 min. […] Chloride transport was then expressed as a percentage of the chloride transport following treatment with 1 μM (14S)-8-[3-(2-{Dispiro[2.0.2.1]heptan-7-yl}ethoxy)-1H-pyrazol-1-yl]-12,12-dimethyl-2λ^6-thia-3,9,11,18,23-pentaazatetracyclo[17.3.1.111,14.05,10]tetracosa-1(22),5,7,9,19(23),20-hexaene-2,2,4-trione, 3 μM (R)-1-(2,2-difluorobenzo[d][1,3]dioxol-5-yl)-N-(1-(2,3-dihydroxypropyl)-6-fluoro-2-(1-hydroxy-2-methylpropan-2-yl)-1H-indol-5-yl)cyclopropanecarboxamide and 300 nM acute N-[2,4-bis(1,1-dimethylethyl)-5-hydroxyphenyl]-1,4-dihydro-4-oxoquinoline-3-carboxamide triple combination control (% Activity).

[1] = Table 8, human enteroid cells, 18-24 hours, acute 10 μM forskolin and 300 nM ivacaftor

Chain of CFTR (P13569 with tags, fused parts or gaps DEL508-508): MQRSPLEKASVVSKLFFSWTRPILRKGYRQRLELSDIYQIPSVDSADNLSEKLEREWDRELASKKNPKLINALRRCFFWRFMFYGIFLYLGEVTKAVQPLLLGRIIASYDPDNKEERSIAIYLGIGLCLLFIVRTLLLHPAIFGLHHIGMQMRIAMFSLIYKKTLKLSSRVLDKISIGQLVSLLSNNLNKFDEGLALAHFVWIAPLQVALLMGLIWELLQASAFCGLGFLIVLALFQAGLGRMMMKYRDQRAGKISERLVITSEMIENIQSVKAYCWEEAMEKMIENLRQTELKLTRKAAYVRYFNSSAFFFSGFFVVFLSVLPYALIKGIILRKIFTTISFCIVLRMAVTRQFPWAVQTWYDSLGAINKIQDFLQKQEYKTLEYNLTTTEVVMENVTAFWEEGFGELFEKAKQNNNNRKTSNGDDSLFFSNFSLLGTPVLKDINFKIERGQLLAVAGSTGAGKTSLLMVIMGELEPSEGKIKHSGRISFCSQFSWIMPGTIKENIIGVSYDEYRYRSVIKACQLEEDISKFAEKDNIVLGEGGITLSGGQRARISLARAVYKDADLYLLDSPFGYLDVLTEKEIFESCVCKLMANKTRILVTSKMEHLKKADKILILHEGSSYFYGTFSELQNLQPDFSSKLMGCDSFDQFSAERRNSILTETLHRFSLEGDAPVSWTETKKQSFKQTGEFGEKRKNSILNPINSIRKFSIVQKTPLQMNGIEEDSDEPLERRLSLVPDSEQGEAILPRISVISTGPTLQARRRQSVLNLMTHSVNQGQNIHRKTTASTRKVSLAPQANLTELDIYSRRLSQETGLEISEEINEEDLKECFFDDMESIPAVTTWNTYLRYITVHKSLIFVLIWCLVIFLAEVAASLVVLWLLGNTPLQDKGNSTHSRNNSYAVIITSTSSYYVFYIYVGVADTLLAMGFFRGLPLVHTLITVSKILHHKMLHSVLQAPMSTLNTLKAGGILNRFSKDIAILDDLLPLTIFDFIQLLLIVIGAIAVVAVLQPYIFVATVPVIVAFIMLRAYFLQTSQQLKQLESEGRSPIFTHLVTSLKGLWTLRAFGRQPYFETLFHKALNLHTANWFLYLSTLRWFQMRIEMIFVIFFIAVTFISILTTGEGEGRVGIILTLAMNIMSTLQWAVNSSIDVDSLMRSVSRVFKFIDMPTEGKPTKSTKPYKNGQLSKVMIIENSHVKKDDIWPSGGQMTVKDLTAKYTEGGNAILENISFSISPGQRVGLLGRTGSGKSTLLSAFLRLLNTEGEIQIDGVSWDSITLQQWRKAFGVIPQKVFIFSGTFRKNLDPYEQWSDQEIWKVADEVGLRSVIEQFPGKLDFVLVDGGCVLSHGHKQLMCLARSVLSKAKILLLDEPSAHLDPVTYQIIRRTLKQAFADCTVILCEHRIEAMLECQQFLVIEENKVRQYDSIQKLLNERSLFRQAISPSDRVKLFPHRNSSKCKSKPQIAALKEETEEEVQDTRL

Ent. B Max Activity (Table 8) | EC50 [1] [nM] | Ent. B Max Activity (%) (Table 9) | EC50 (Table 9) [nM] | SMILES | also measured
+++ (+++ is >60%) | < 1000 |  |  | Cc1cccc(C)c1-c1cc2nc(n1)NS(=O)(=O)c1cccc(c1)C(=O)N(Cc1cncnc1)[C@H](CC(C)(C)C)CO2 [Compound 1095] | 
+++ (+++ is >60%) | < 1000 |  |  | Cc1cccc(C)c1-c1cc2nc(n1)NS(=O)(=O)c1cc(n(C)n1)C(=O)N(Cc1cnccn1)[C@H](CC(C)(C)C)CO2 [Compound 921] | 
+++ (+++ is >60%) | < 1000 |  |  | Cc1cccc(C)c1-c1cc2nc(n1)NS(=O)(=O)c1cccc(c1)C(=O)N(Cc1cccnc1)[C@H](CC(C)(C)C)CO2 [Compound 1086] | 
+ (+ is <30%) | 1000 to 3000 |  |  | Cc1cccc(C)c1-c1cc2nc(n1)NS(=O)(=O)c1cc(nn1C)C(=O)N(Cc1cccnn1)[C@H](CC(C)(C)C)CO2 [Compound 931] | 
+++ (+++ is >60%) | < 1000 |  |  | Cc1cccc(C)c1-c1cc2nc(n1)NS(=O)(=O)c1cccc(c1)C(=O)N(Cc1ccnc(NC(=O)OC(C)C)c1)[C@H](CC(C)(C)C)CO2 [Compound 1088] | 
+++ (+++ is >60%) | < 1000 |  |  | Cc1cccc(C)c1-c1cc2nc(n1)NS(=O)(=O)c1cccc(c1)C(=O)N(Cc1ccc(C(C)(C)O)nc1)[C@H](CC(C)(C)C)CO2 [Compound 1089] | 
+ (+ is <30%) | 1000 to 3000 |  |  | Cc1cccc(C)c1-c1cc2nc(n1)NS(=O)(=O)c1cccc(c1)C(=O)N(CCCC(C)(C)O)[C@H](CC(C)(C)O)CO2 [Compound 662] | 
 |  | +++ (+++ is >600%) | < 1000 | Cc1cccc(C)c1-c1cc2nc(n1)NSc1cccc(c1)C(=O)N(Cc1ccc(C(C)(C)O)nc1)[C@H](CC(C)(C)C(F)(F)F)CO2 [Compound 320] | 
+++ (+++ is >60%) | < 1000 |  |  | Cc1cccc(C)c1-c1cc2nc(n1)NS(=O)(=O)c1cccc(c1)C(=O)N(C)CC(c1ccc(CC3(C(F)(F)F)CC3)cn1)O2 (centres unmarked) [Compound 336] | 
 |  | +++ (+++ is >600%) | < 1000 | Cc1cccc(C)c1-c1cc2nc(n1)NS(=O)(=O)c1cccc(c1)C(=O)N(Cc1cccc(N)n1)[C@H](CC(C)(C)C)CO2 [Compound 125, (11R)-12-[(6-Amino-2-pyridyl)methyl]-6-(2,6-dimethylphenyl)-11-(2,2-dimethylpropyl)-2,2-dioxo-9-oxa-2λ^6-thia-3,5,12,19-tetrazatricyclo[12.3.1.14,8]nonadeca-1(18),4(19),5,7,14,16-hexaen-13-one] | 
 |  | +++ (+++ is >600%) | < 1000 | CNC(=O)Cc1ccc(CN2C(=O)c3cccc(c3)S(=O)(=O)Nc3nc(cc(-c4c(C)cccc4C)n3)OC[C@H]2CC(C)(C)C)cc1 [Compound 846] | 
+++ (+++ is >60%) | < 1000 |  |  | Cc1cccc(C)c1-c1cc2nc(n1)NS(=O)(=O)c1cccc(c1)C(=O)N(Cc1ccncn1)[C@H](CC(C)(C)C)CO2 [Compound 1098] | 
+++ (+++ is >60%) | < 1000 |  |  | Cc1cccc(C)c1-c1cc2nc(n1)NS(=O)(=O)c1cc(n(C)n1)C(=O)N(Cc1ccc(C(C)(C)O)cc1)[C@H](CC(C)(C)C)CO2 [Compound 923] | 
 |  | +++ (+++ is >600%) | < 1000 | Cc1cccc(C)c1-c1cc2nc(n1)NS(=O)(=O)c1cccc(c1)C(=O)N(Cc1ccc(-c3cn[nH]c3)cc1)[C@H](CC(C)(C)C)CO2 [Compound 317] | 
+++ (+++ is >60%) | < 1000 |  |  | Cc1cccc(C)c1-c1cc2nc(n1)NS(=O)(=O)c1cccc(c1)C(=O)N([C@H](C)c1ccccc1)[C@H](CC(C)(C)C)CO2 [Compound 1079] | 
++ (++ is 30-60%) | 3000 to 30000 |  |  | CCOC(=O)CCCCN1C(=O)c2cc(nn2C)S(=O)(=O)Nc2nc(cc(-c3c(C)cccc3C)n2)OC[C@H]1CC(C)(C)C [Compound 922] | 
+++ (+++ is >60%) | < 1000 |  |  | Cc1cccc(C)c1-c1cc2nc(n1)NS(=O)(=O)c1cccc(c1)C(=O)N(Cc1ccccn1)[C@H](CC(C)(C)C)CO2 [Compound 124, (11R)-6-(2,6-Dimethylphenyl)-11-(2,2-dimethylpropyl)-12-[(pyridin-2-yl)methyl]-9-oxa-2λ^6-thia-3,5,12,19-tetraazatricyclo[12.3.1.14,8]nonadeca-1(17),4,6,8(19),14(18),15-hexaene-2,2,13-trione] | 
 |  | +++ (+++ is >600%) | < 1000 | Cc1cccc(C)c1-c1cc2nc(n1)NS(=O)(=O)c1cccc(c1)C(=O)N(Cc1ccc3c(c1)NC(=O)C3)[C@H](CC(C)(C)C)CO2 [Compound 799] | 
++ (++ is 30-60%) | 1000 to 3000 |  |  | Cc1cccc(C)c1-c1cc2nc(n1)NS(=O)(=O)c1cccc(c1)C(=O)N(Cc1ncccn1)[C@H](CCC(C)(C)O)CO2 [Compound 659] | 
 |  | ++ (++ is 30-60%) | < 1000 | Cc1cccc(C)c1-c1cc2nc(n1)NS(=O)(=O)c1cccc(c1)C(=O)N(CCC1(C(F)(F)F)CC1)[C@@H]1CN(C3CC4(CCCCC4)C3)C[C@H]1O2 [Compound 1190, (3R,7R)-19-(2,6-Dimethylphenyl)-5-{spiro[3.5]nonan-2-yl}-8-{2-[1-(trifluoromethyl)cyclopropyl]ethyl}-2-oxa-15λ^6-thia-5,8,16,18,21-pentaazatetracyclo[15.3.1.110,14.03,7]docosa-1(20),10(22),11,13,17(21),18-hexaene-9,15,15-trione] | 
 |  |  |  | Cc1cccc(C)c1-c1cc2nc(n1)NS(=O)(=O)c1cccc(c1)C(=O)N(CC#N)[C@H](CC(C)C)CO2 [Compound 1104] | Ent. B Max Activity (Table 7): +++ (+++ is >60%); EC50 (Table 7, human enteroid cells, 18-24 hours, acute 10 μM forskolin and 300 nM ivacaftor): < 1000 nM
 |  | +++ (+++ is >600%) | < 1000 | Cc1cccc(C)c1-c1cc2nc(n1)NS(=O)(=O)c1cccc(c1)C(=O)N(Cc1ccc3c(c1)CC(C)(C)O3)[C@H](CC(C)(C)C)CO2 [Compound 798] | 
+++ (+++ is >60%) | < 1000 |  |  | COC(=O)Nc1ccc(CN2C(=O)c3cccc(c3)S(=O)(=O)Nc3nc(cc(-c4c(C)cccc4C)n3)OC[C@H]2CC(C)(C)C)cn1 [Compound 402] | 
+++ (+++ is >60%) | < 1000 |  |  | COc1ncc(CN2C(=O)c3cccc(c3)S(=O)(=O)Nc3nc(cc(-c4c(C)cccc4C)n3)OC[C@H]2CC(C)(C)C)cn1 [Compound 1101] | 
 |  | +++ (+++ is >600%) | < 1000 | Cc1cnc(CN2C(=O)c3cc(nn3C)S(=O)(=O)Nc3nc(cc(-c4c(C)cccc4C)n3)OC[C@H]2CC(C)(C)C)nc1 [Compound 924] | 
 |  | +++ (+++ is >600%) | < 1000 | Cc1cccc(C)c1-c1cc2nc(n1)NSc1cccc(c1)C(=O)N(Cc1ccc(C(C)(C)O)cc1)[C@H](CC(C)(C)C(F)(F)F)CO2 [Compound 321] | 
 |  | +++ (+++ is >600%) | < 1000 | Cc1cccc(C)c1-c1cc2nc(n1)NS(=O)(=O)c1cccc(c1)C(=O)N(Cc1nc3ccccc3o1)[C@H](CC(C)(C)C)CO2 [Compound 803] | 
+++ (+++ is >60%) | < 1000 |  |  | Cc1cccc(C)c1-c1cc2nc(n1)NS(=O)(=O)c1cccc(n1)C(=O)N(Cc1ccccc1)[C@H](CC(C)(C)C)CO2 [Compound 1085] | 

Source: patent US20240150377A1, “MODULATORS OF CYSTIC FIBROSIS TRANSMEMBRANE CONDUCTANCE REGULATOR” (VERTEX PHARMACEUTICALS INCORPORATED, priority 2020, published 2024)
